In patent US5663331A, “Cephalosporin compounds” (Il-Dong Pharm. Co., Ltd., priority 1992, dated 1997):
In brackets after ≈: the same amount, converted by molar mass.

Tests used:
Format in all cases: cell-based
[1] = system: Bacillus subtilis ATCC 6633; experiment: MIC, two-fold dilution method, Bacillus subtilis ATCC 6633; conditions: 10^6 CFU per ml, 37° C., 18 to 20 hours; for MIC: ATCC6633, Muller Hinton Broth, read-out: Antibacterial Activity (MIC); for Antibacterial Activity (MIC): Muller Hinton Broth
How it was run: (§1)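 Two-fold serial dilutions of compound were prepared in Mueller Hinton Broth and inoculated with the standard strain at 10^6 CFU per ml. Cultures were incubated at 37° C. for 18 to 20 hours, and the MIC was taken as the minimal inhibitory concentration.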

[2] = system: Staphylococcus aureus ATCC 65389; experiment: MIC, two-fold dilution method, Staphylococcus aureus ATCC 65389; conditions: 10^6 CFU per ml, 37° C., 18 to 20 hours; for MIC: ATCC65389, Muller Hinton Broth, read-out: Antibacterial Activity (MIC); for Antibacterial Activity (MIC): Muller Hinton Broth
How it was run: as §1

[3] = system: Staphylococcus epidermidis ATCC 12228; experiment: MIC, two-fold dilution method, Staphylococcus epidermidis ATCC 12228; conditions: 10^6 CFU per ml, 37° C., 18 to 20 hours; for MIC: ATCC12228, Muller Hinton Broth, read-out: Antibacterial Activity (MIC); for Antibacterial Activity (MIC): Muller Hinton Broth
How it was run: as §1

[4] = system: Streptococcus faecalis ATCC 10541; experiment: MIC, two-fold dilution method, Streptococcus faecalis ATCC 10541; conditions: 10^6 CFU per ml, 37° C., 18 to 20 hours; for MIC: Enterococcus faecalis, ATCC10541, Muller Hinton Broth, read-out: Antibacterial Activity (MIC); for Antibacterial Activity (MIC): Muller Hinton Broth
How it was run: as §1

[5] = system: Pseudomonas aeurginosa NCTC 10490; experiment: MIC, two-fold dilution method, Pseudomonas aeurginosa NCTC 10490; conditions: 10^6 CFU per ml, 37° C., 18 to 20 hours; for MIC: NCTC10490, Muller Hinton Broth, read-out: Antibacterial Activity (MIC); for Antibacterial Activity (MIC): Muller Hinton Broth
How it was run: as §1

[6] = system: Esherichia coli ATCC 25922; experiment: MIC, two-fold dilution method, Esherichia coli ATCC 25922; conditions: Muller Hinton Broth, 10^6 CFU per ml, 37° C., 18 to 20 hours; for MIC: read-out: Antibacterial Activity (MIC)
How it was run: as §1

[7] = system: Klebsiella pneumoniae ATCC 10031; experiment: MIC, two-fold dilution method, Klebsiella pneumoniae ATCC 10031; conditions: 10^6 CFU per ml, 37° C., 18 to 20 hours; for MIC: ATCC10031, Muller Hinton Broth, read-out: Antibacterial Activity (MIC); for Antibacterial Activity (MIC): Muller Hinton Broth
How it was run: as §1

| SMILES | MIC [1] [µg/mL] | MIC [2] [µg/mL] | MIC [3] [µg/mL] | MIC [4] [µg/mL] | MIC [5] [µg/mL] | MIC [6] [µg/mL] | MIC [7] [µg/mL] | Antibacterial Activity (MIC) [1] [µg/mL] | Antibacterial Activity (MIC) [2] [µg/mL] | Antibacterial Activity (MIC) [3] [µg/mL] | Antibacterial Activity (MIC) [4] [µg/mL] | Antibacterial Activity (MIC) [5] [µg/mL] | Antibacterial Activity (MIC) [6] [µg/mL] | Antibacterial Activity (MIC) [7] [µg/mL] |
| --- | --- | --- | --- | --- | --- | --- | --- | --- | --- | --- | --- | --- | --- | --- |
| C=CCO/N=C(\C(=O)NC1C(=O)N2C(C(=O)[O-])=C(CSc3cc[n+](CC=C)c4cc(N5CCN(C)CC5)c(F)cc34)CSC12)c1csc(N)n1 (stereo not drawn) [Compound I-34, 7-[(Z)-2-(2-aminothiazol-4-yl)-2-(allyloxyimino)acetamido]-3-[1-allyl-6-fluoro-7-(N-methylpiperazinyl)quinolinium-4-yl]thiomethyl-3-cephem-4-carboxylate] | 0.78 (≈ 1.06 µM) | 1.56 (≈ 2.11 µM) | 1.56 (≈ 2.11 µM) | 0.78 (≈ 1.06 µM) | 6.25 (≈ 8.46 µM) | 3.13 (≈ 4.24 µM) | 1.56 (≈ 2.11 µM) |  |  |  |  |  |  |  |
| C=CCO/N=C(\C(=O)NC1C(=O)N2C(C(=O)[O-])=C(CSc3cc[n+](CC=C)c4cc(N5CCN(CC)CC5)c(F)cc34)CSC12)c1csc(N)n1 (stereo not drawn) [Compound I-35, 7-[(Z)-2-(2-aminothiazol-4-yl)-2-(allyloxyimino)acetamido]-3-[1-allyl-6-fluoro-7-(1-ethylpiperazinyl)quinolinium-4-yl]thiomethyl-3-cephem-4-carboxylate] | 0.39 (≈ 0.518 µM) | 0.78 (≈ 1.04 µM) | 0.78 (≈ 1.04 µM) | 0.39 (≈ 0.518 µM) | 0.78 (≈ 1.04 µM) | 1.56 (≈ 2.07 µM) | 0.78 (≈ 1.04 µM) |  |  |  |  |  |  |  |
| C=CCO/N=C(\C(=O)NC1C(=O)N2C(C(=O)[O-])=C(CSc3cc[n+](CC=C)c4cc(N5CCNCC5C)c(F)cc34)CS[C@H]12)c1csc(N)n1 (stereo partly drawn) [Compound I-36, 7-[(Z)-2-(2-aminothiazol-4-yl)-2-(allyloxyimino)acetamido]-3-[1-allyl-6-fluoro-7-(2-methylpiperazinyl)quinolinium-4-yl]thiomethyl-3-cephem4-carboxylate] |  |  |  |  |  |  |  | 0.39 | 0.78 | 1.56 | 0.39 | 1.56 | 1.56 | 0.78 |
| C#CCO/N=C(\C(=O)NC1C(=O)N2C(C(=O)[O-])=C(CSc3cc[n+](C4CC4)c4cc(N5CCN(C)CC5)c(F)cc34)CSC12)c1csc(N)n1 (stereo not drawn) [Compound I-42, 7-[(Z)-2-(2-aminothiazol-4-yl)-2-(propargyloxyimino)acetamido]-3-[1-cyclopropyl-6-fluoro-7-(N-methylpiperazinyl)quinolinium-4-yl]thiomethyl-3-cephem-4-carboxylate] | 0.2 (≈ 0.271 µM) | 0.78 (≈ 1.06 µM) | 0.78 (≈ 1.06 µM) | 0.39 (≈ 0.529 µM) | 3.13 (≈ 4.25 µM) | 3.13 (≈ 4.25 µM) | 3.13 (≈ 4.25 µM) |  |  |  |  |  |  |  |
| C#CCO/N=C(\C(=O)NC1C(=O)N2C(C(=O)[O-])=C(CSc3cc[n+](C4CC4)c4cc(N5CCN(CC)CC5)c(F)cc34)CSC12)c1csc(N)n1 (stereo not drawn) [Compound I-43] | 0.1 (≈ 0.133 µM) | 0.1 (≈ 0.133 µM) | 0.1 (≈ 0.133 µM) | 0.05 (≈ 0.0666 µM) | 0.78 (≈ 1.04 µM) | 1.56 (≈ 2.08 µM) | 0.78 (≈ 1.04 µM) |  |  |  |  |  |  |  |
| C#CCO/N=C(\C(=O)NC1C(=O)N2C(C(=O)[O-])=C(CSc3cc[n+](C4CC4)c4cc(N5CCNCC5C)c(F)cc34)CS[C@H]12)c1csc(N)n1 (stereo partly drawn) [Compound I-44, 7-[(Z)-2-(2-aminothiazol-4-yl)-2-(propargyloxyimino)acetamido]-3-[1-cyclopropyl-6-fluoro-7-(2-methylpiperazinyl)quinolinium-4-yl]thiomethyl-3-cephem-4-carboxylate] |  |  |  |  |  |  |  | 0.05 | 0.39 | 0.2 | 0.2 | 1.56 | 1.56 | 0.78 |
| C#CCO/N=C(\C(=O)NC1C(=O)N2C(C(=O)[O-])=C(CSc3cc[n+](CC)c4cc(N5CCN(CC)CC5)c(F)cc34)CSC12)c1csc(N)n1 (stereo not drawn) [Compound I-47, 7-[(Z)-2-(2-aminothiazol-4-yl)-2-(propargyloxyimino)acetamido]-3-[1-ethyl-6-fluoro-7-(1-ethylpiperazinyl)quinolinium-4-yl]thiomethyl-3-cephem-4-carboxylate] | 0.2 (≈ 0.271 µM) | 0.2 (≈ 0.271 µM) | 0.78 (≈ 1.06 µM) | 0.1 (≈ 0.135 µM) | 1.56 (≈ 2.11 µM) | 6.25 (≈ 8.46 µM) | 1.56 (≈ 2.11 µM) |  |  |  |  |  |  |  |

Next, values leading:

| MIC [1] [µg/mL] | MIC [2] [µg/mL] | MIC [3] [µg/mL] | MIC [4] [µg/mL] | MIC [5] [µg/mL] | MIC [6] [µg/mL] | MIC [7] [µg/mL] | Antibacterial Activity (MIC) [1] [µg/mL] | Antibacterial Activity (MIC) [2] [µg/mL] | Antibacterial Activity (MIC) [3] [µg/mL] | Antibacterial Activity (MIC) [4] [µg/mL] | Antibacterial Activity (MIC) [5] [µg/mL] | Antibacterial Activity (MIC) [6] [µg/mL] | Antibacterial Activity (MIC) [7] [µg/mL] | SMILES |
| --- | --- | --- | --- | --- | --- | --- | --- | --- | --- | --- | --- | --- | --- | --- |
| 0.2 (≈ 0.277 µM) | 0.78 (≈ 1.08 µM) | 0.78 (≈ 1.08 µM) | 0.39 (≈ 0.54 µM) | 3.13 (≈ 4.33 µM) | 3.13 (≈ 4.33 µM) | 6.25 (≈ 8.65 µM) |  |  |  |  |  |  |  | C#CCO/N=C(\C(=O)NC1C(=O)N2C(C(=O)[O-])=C(CSc3cc[n+](C4CC4)c4cc(N5CCNCC5)c(F)cc34)CS[C@H]12)c1csc(N)n1 (stereo partly drawn) [Compound I-41, 7-[(Z)-2-(2-aminothiazol-4-yl)-2-(propargyloxyimino)acetamido]-3-(1-cyclopropyl-6-fluoro-7-piperazinylquinolinium-4-yl)thiomethyl-3-cephem-4-carboxylate] |
| 0.1 (≈ 0.141 µM) | 0.2 (≈ 0.281 µM) | 0.78 (≈ 1.1 µM) | 0.39 (≈ 0.549 µM) | 1.56 (≈ 2.19 µM) | 3.13 (≈ 4.4 µM) | 0.78 (≈ 1.1 µM) |  |  |  |  |  |  |  | C#CCO/N=C(\C(=O)NC1C(=O)N2C(C(=O)[O-])=C(CSc3cc[n+](CC)c4cc(N5CCNCC5)c(F)cc34)CS[C@H]12)c1csc(N)n1 (stereo partly drawn) [Compound I-45, 7-[(Z)-2-(2-aminothiazol-4-yl)-2-(propargyloxyimino)acetamido]-3-(1-ethyl-6-fluoro-7-piperazinylquinolinium-4-yl)thiomethyl-3-cephem-4-carboxylate] |
| 0.78 (≈ 1.08 µM) | 0.78 (≈ 1.08 µM) | 0.39 (≈ 0.538 µM) | 0.2 (≈ 0.276 µM) | 6.25 (≈ 8.62 µM) | 12.5 (≈ 17.2 µM) | 6.25 (≈ 8.62 µM) |  |  |  |  |  |  |  | C#CCO/N=C(\C(=O)NC1C(=O)N2C(C(=O)[O-])=C(CSc3cc[n+](CC)c4cc(N5CCN(C)CC5)c(F)cc34)CSC12)c1csc(N)n1 (stereo not drawn) [Compound I-46, 7-[(Z)-2-(2-aminothiazol-4-yl)-2-(propargyloxyimino)acetamido]-3-[1-ethyl-6-fluoro-7-(N-methylpiperazinyl)quinolinium-4-yl]thiomethyl-3-cephem-4-carboxylate] |
|  |  |  |  |  |  |  | 0.1 | 0.39 | 0.78 | 0.39 | 1.56 | 3.13 | 1.56 | C#CCO/N=C(\C(=O)NC1C(=O)N2C(C(=O)[O-])=C(CSc3cc[n+](CC)c4cc(N5CCNCC5C)c(F)cc34)CS[C@H]12)c1csc(N)n1 (stereo partly drawn) [Compound I-48, 7-[(Z)-2-(2-aminothiazol-4-yl)-2-(propargyloxyimino)acetamido]-3-[1-ethyl-6-fluoro-7-(2-methylpiperazinyl)quinolinium-4-yl]thiomethyl-3-cephem-4-carboxylate] |
| 0.39 (≈ 0.54 µM) | 1.56 (≈ 2.16 µM) | 1.56 (≈ 2.16 µM) | 0.78 (≈ 1.08 µM) | 1.56 (≈ 2.16 µM) | 1.56 (≈ 2.16 µM) | 1.56 (≈ 2.16 µM) |  |  |  |  |  |  |  | C#CCO/N=C(\C(=O)NC1C(=O)N2C(C(=O)[O-])=C(CSc3cc[n+](CC=C)c4cc(N5CCNCC5)c(F)cc34)CS[C@H]12)c1csc(N)n1 (stereo partly drawn) [Compound I-49, 7-[(Z)-2-(2-aminothiazol-4-yl)-2-(propargyloxyimino)acetamido]-3-(1-allyl-6-fluoro-7-piperazinylquinolinium-4-yl)thiomethyl-3-cephem-4-carboxylate] |
